Experimental data taken from patent US11981658B2, “Substituted aminopyridine compounds as EGFR inhibitors” (YUHAN CORPORATION, priority 2021, dated 2024).
Structures can show the parent of a compound that is named as a salt. Where two headings read alike, the source gives them in different places.

How the values were obtained:
EGFR L858R/T790M/C797S = EGFR L858R/T790M/C797S (Homo sapiens, UniProt P00533, C797S/L858R/T790M); assay: Biochemical EGFR kinase inhibition assay (Lance Ultra TR-FRET), triple mutant L858R/T790M/C797S
In short: (§1)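 Enzyme reactions lasted 1 hour at room temperature with test compounds between 0.003 and 10 μM, followed by 10 mM EDTA quench.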

EGFR Del19/C797S = EGFR Del19/C797S (Homo sapiens, UniProt P00533, C797S/DEL746-750); assay: Biochemical EGFR kinase inhibition assay (Lance Ultra TR-FRET), double mutant del19/C797S
In short: as §1

EGFR Del19/T790M/C797S = EGFR Del19/T790M/C797S (Homo sapiens, UniProt P00533, C797S/DEL746-750/T790M); assay: Biochemical EGFR kinase inhibition assay (Lance Ultra TR-FRET), triple mutant del19/T790M/C797S
In short: as §1

EGFR wildtype (WT) = EGFR wildtype (WT) (Homo sapiens, UniProt P00533); assay: Biochemical EGFR kinase inhibition assay (Lance Ultra TR-FRET), wildtype
In short: as §1

EGFR L858R/C797S = EGFR L858R/C797S (Homo sapiens, UniProt P00533, C797S/L858R); assay: Biochemical EGFR kinase inhibition assay (Lance Ultra TR-FRET), double mutant L858R/C797S
In short: as §1

[1] = ATP at Km, read-out: IC50 L858R/T790M/C797S (nM), Km ATP
[2] = IC50 L858R/T790M/C797S (nM), 100 μM ATP
[3] = ATP at Km, read-out: IC50 Del19/C797S (nM), Km ATP
[4] = IC50 Del19/C797S (nM), 100 μM ATP
[5] = ATP at Km, read-out: IC50 Del19/T790M/C797S (nM), Km ATP
[6] = IC50 Del19/T790M/C797S (nM), 100 μM ATP
[7] = ATP at Km, read-out: IC50 WT (nM), Km ATP
[8] = ATP at Km, read-out: IC50 L858R/C797S (nM), Km ATP
[9] = IC50 L858R/C797S (nM), 100 μM ATP

Chain of EGFR Del19/C797S (P00533 with tags, fused parts or gaps DEL746-750/C797S): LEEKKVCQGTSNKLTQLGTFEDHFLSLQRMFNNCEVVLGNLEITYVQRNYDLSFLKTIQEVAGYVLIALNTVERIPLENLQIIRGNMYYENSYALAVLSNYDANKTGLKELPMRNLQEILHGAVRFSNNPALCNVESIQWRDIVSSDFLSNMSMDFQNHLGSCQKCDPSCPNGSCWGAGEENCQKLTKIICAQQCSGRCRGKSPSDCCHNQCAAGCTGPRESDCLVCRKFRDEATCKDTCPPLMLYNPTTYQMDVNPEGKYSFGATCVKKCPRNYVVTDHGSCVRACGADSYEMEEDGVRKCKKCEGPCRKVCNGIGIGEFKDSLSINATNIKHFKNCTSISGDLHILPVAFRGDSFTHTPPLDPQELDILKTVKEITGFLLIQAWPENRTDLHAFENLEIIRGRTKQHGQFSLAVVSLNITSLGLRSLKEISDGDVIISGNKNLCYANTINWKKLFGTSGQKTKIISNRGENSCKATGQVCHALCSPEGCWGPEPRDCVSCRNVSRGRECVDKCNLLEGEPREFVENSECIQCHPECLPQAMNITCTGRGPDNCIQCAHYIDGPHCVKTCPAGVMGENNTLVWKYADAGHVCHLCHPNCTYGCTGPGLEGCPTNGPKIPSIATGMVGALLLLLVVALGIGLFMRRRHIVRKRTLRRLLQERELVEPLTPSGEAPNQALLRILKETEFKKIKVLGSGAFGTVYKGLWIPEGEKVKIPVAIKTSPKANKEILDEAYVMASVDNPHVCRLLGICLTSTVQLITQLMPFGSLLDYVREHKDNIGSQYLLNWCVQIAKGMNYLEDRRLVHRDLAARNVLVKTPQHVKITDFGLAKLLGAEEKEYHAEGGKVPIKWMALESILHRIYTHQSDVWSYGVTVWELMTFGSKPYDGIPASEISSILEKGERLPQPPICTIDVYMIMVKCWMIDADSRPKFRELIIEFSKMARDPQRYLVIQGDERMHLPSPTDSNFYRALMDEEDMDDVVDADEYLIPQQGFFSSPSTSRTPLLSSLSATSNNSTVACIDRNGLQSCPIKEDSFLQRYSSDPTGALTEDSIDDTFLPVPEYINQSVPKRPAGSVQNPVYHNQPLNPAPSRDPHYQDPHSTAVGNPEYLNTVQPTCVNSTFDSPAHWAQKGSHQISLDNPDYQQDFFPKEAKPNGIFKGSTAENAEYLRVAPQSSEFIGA
Chain of EGFR wildtype (WT) (P00533 25-1210): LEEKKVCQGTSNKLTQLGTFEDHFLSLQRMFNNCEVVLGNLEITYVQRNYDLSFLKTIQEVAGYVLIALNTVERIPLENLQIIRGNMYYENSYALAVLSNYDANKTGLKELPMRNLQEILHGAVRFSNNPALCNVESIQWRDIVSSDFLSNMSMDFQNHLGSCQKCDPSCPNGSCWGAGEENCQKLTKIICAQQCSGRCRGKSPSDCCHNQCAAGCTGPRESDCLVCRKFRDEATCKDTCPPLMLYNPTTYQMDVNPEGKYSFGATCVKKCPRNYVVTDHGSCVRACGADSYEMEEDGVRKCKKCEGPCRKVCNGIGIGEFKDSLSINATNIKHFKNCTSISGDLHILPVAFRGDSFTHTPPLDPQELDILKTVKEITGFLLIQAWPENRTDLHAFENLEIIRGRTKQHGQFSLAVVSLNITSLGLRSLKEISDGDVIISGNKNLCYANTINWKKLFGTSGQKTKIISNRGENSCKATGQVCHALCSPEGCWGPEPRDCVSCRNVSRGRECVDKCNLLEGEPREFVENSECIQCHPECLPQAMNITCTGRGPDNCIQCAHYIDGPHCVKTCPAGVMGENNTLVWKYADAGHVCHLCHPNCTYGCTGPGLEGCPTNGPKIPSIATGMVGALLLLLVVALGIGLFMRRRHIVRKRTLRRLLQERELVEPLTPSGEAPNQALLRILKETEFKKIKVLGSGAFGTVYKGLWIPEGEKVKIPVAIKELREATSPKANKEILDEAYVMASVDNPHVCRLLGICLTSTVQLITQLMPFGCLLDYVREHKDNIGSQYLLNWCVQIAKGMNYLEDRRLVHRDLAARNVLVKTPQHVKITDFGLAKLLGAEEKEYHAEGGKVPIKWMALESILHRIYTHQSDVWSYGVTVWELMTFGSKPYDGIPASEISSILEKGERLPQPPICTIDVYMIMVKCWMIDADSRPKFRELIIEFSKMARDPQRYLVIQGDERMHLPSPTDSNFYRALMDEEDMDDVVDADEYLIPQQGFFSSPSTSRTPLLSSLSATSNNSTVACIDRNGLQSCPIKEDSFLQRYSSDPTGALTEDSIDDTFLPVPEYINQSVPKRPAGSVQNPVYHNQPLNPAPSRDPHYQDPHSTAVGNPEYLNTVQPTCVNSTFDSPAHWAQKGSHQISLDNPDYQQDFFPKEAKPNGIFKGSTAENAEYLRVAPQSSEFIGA
Chain of EGFR L858R/C797S (P00533 25-1210 C797S/L858R): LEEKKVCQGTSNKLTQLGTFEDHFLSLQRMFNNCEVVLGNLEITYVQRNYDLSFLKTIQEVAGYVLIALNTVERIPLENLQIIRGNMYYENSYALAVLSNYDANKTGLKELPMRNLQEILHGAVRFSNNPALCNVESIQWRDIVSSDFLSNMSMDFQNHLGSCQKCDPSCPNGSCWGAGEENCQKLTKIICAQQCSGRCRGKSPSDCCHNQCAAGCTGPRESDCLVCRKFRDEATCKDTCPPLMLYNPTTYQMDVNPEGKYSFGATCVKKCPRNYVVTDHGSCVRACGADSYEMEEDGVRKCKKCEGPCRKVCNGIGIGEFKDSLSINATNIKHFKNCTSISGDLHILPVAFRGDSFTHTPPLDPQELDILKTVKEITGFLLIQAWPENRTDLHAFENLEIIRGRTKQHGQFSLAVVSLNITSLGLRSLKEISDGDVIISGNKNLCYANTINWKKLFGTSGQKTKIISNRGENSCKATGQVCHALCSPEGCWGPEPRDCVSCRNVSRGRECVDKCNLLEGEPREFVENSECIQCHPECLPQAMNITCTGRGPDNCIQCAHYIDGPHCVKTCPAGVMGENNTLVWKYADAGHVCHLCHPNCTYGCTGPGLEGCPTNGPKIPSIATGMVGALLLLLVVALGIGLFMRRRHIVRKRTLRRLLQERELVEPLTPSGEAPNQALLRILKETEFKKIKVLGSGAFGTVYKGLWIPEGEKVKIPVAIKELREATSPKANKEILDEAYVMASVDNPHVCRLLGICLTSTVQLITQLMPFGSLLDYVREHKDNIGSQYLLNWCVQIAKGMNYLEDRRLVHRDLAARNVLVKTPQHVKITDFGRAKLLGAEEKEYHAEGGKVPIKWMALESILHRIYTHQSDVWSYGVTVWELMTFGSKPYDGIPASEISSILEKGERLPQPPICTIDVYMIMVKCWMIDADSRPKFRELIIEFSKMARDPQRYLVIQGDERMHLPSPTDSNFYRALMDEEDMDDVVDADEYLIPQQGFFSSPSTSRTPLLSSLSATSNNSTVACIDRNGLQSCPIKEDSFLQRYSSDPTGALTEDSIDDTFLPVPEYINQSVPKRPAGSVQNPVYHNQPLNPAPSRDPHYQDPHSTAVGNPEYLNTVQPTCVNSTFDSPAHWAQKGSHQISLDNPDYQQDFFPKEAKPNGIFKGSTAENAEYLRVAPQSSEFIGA
Chain of EGFR Del19/T790M/C797S (P00533 with tags, fused parts or gaps DEL746-750/T790M/C797S): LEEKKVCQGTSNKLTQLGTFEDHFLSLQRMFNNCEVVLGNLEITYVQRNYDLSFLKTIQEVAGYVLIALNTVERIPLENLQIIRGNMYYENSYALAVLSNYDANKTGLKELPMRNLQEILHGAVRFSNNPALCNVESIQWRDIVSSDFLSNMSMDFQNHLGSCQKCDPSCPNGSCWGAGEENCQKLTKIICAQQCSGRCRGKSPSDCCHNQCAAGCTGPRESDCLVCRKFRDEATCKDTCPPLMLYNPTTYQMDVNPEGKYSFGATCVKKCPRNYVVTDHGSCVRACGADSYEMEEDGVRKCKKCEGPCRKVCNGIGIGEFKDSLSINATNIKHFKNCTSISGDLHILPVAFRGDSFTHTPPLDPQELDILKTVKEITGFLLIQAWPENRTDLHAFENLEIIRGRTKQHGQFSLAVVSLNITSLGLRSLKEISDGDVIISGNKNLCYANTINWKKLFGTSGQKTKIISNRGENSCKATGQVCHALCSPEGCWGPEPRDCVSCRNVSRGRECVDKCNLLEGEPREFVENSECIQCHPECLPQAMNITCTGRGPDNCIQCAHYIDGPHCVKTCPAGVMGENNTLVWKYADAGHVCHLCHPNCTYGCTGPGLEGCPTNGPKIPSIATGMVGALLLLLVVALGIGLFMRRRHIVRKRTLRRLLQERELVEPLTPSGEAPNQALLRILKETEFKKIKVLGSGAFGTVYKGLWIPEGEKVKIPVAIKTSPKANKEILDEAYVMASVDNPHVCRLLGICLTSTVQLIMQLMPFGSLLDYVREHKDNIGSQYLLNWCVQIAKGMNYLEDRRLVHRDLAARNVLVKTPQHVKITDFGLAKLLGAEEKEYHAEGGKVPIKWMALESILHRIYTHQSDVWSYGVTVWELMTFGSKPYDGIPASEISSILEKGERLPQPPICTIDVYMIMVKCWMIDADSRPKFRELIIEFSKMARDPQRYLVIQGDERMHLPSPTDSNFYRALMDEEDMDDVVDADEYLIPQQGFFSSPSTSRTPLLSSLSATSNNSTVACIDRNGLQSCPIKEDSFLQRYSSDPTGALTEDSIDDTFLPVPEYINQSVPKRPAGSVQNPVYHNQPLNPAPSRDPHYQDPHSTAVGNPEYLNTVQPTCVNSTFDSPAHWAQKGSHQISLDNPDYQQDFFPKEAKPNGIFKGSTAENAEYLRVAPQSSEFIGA

Row | IC50 (EGFR L858R/T790M/C797S; [1]) | IC50 (EGFR L858R/T790M/C797S; [2]) | IC50 (EGFR Del19/C797S; [3]) | IC50 (EGFR Del19/C797S; [4]) | IC50 (EGFR Del19/T790M/C797S; [5]) | IC50 (EGFR Del19/T790M/C797S; [6]) | IC50 (EGFR wildtype (WT); [7]) | IC50 (EGFR wildtype (WT); IC50 WT (nM), 100 μM ATP) | IC50 (EGFR L858R/C797S; [8]) | IC50 (EGFR L858R/C797S; [9]) | Structure (SMILES)
1 | 3.6 nM | 14.9 nM | 8.9 nM | 22.5 nM | 4.5 nM | 7.4 nM | 615 nM | > 10000 nM | 36.7 nM | 383 nM | CC1(CO)CCN(c2cc(Nc3ccnc(-c4cnn(S(=O)(=O)C5CC5)c4)n3)ncc2C#Cc2nc(C(F)(F)F)cs2)CC1 [Example 291, (1-(2-((2-(1-(Cyclopropylsulfonyl)-1H-pyrazol-4-yl)pyrimidin-4-yl)amino)-5-((4-(trifluoromethyl)thiazol-2-yl)ethynyl)pyridin-4-yl)-4-methylpiperidin-4-yl)methanol]
2 | 2.4 nM | 4.2 nM | 12.2 nM | 10.4 nM | 4.9 nM | 2.2 nM | 101 nM | > 10000 nM | 38.7 nM | 146 nM | CC1(CO)CCN(c2cc(Nc3ccnc(-c4cnn(S(=O)(=O)C5CC5)c4)n3)ncc2C#Cc2cnc(C(F)(F)F)s2)CC1 [Example 292, (1-(2-((2-(1-(Cyclopropylsulfonyl)-1H-pyrazol-4-yl)pyrimidin-4-yl)amino)-5-((2-(trifluoromethyl)thiazol-5-yl)ethynyl)pyridin-4-yl)-4-methylpiperidin-4-yl)methanol]
3 | 0.03 nM | 1.3 nM | 2.3 nM | 6.5 nM | 0.1 nM | 0.4 nM | 8.6 nM | > 10000 nM | 4.2 nM | 34.1 nM | CN(C)CC1(F)CCN(c2cc(Nc3ccnc(-c4cnn(S(=O)(=O)C5CC5)c4)n3)ncc2C#Cc2cnn(C)c2)CC1 [Example 293, 2-(1-(Cyclopropylsulfonyl)-1H-pyrazol-4-yl)-N-(4-(4-((dimethylamino)methyl)-4-fluoropiperidin-1-yl)-5-((1-methyl-1H-pyrazol-4-yl)ethynyl)pyridin-2-yl)pyrimidin-4-amine formate]
4 | 0.1 nM | 0.1 nM | 0.2 nM | 0.2 nM | 0.1 nM | 0.1 nM | 0.6 nM | 351 nM | 0.3 nM | 1.6 nM | CN(C)CCC1CCN(c2cc(Nc3ccnc(-c4cnn(S(=O)(=O)C5CC5)c4)n3)ncc2C#Cc2cnn(C)c2)CC1 [Example 294, 2-(1-(Cyclopropylsulfonyl)-1H-pyrazol-4-yl)-N-(4-(4-(2-(dimethylamino)ethyl)piperidin-1-yl)-5-((1-methyl-1H-pyrazol-4-yl)ethynyl)pyridin-2-yl)pyrimidin-4-amine formate]
5 |  | 2.4 nM |  | 9.9 nM |  | 0.8 nM |  | > 10000 nM |  | 68.2 nM | CN(C)CC1CCN(c2cc(Nc3ccnc(-c4cnn(S(=O)(=O)C5CC5)c4)n3)ncc2C#Cc2cnn(C)c2)CC1 [Example 295, 2-(1-(Cyclopropylsulfonyl)-1H-pyrazol-4-yl)-N-(4-(4-((dimethylamino)methyl)piperidin-1-yl)-5-((1-methyl-1H-pyrazol-4-yl)ethynyl)pyridin-2-yl)pyrimidin-4-amine]
6 | 0.1 nM | 0.3 nM | 0.6 nM | 0.6 nM | 0.1 nM | 0.1 nM | 4.4 nM | 3250 nM | 1.4 nM | 9 nM | CN(C)CC1(C)CCN(c2cc(Nc3ccnc(-c4cnn(S(=O)(=O)C5CC5)c4)n3)ncc2C#Cc2cnn(C)c2)CC1 [Example 296, 2-(1-(Cyclopropylsulfonyl)-1H-pyrazol-4-yl)-N-(4-(4-((dimethylamino)methyl)-4-methylpiperidin-1-yl)-5-((1-methyl-1H-pyrazol-4-yl)ethynyl)pyridin-2-yl)pyrimidin-4-amine]
7 | 0.1 nM | 0.2 nM | 1.2 nM | 3.2 nM | 0.1 nM | 0.1 nM | 4.1 nM | 4180 nM | 1 nM | 38.1 nM | CN1CCC2(CCN(c3cc(Nc4ccnc(-c5cnn(S(=O)(=O)C6CC6)c5)n4)ncc3C#Cc3cnn(C)c3)CC2)C1 [Example 297, 2-(1-(Cyclopropylsulfonyl)-1H-pyrazol-4-yl)-N-(5-((1-methyl-1H-pyrazol-4-yl)ethynyl)-4-(2-methyl-2,8-diazaspiro[4.5]decan-8-yl)pyridin-2-yl)pyrimidin-4-amine formate]
8 | 0.4 nM | 1.5 nM | 5.3 nM | 12 nM | 0.3 nM | 0.4 nM | 23 nM | > 10000 nM | 18.5 nM | 140 nM | CN(C)CC1CCN(c2cc(Nc3ccnc(-c4cnn(S(=O)(=O)C5CC5)c4)n3)ncc2C#Cc2cnn(C3CC3)c2)CC1 [Example 298, N-(5-((1-Cyclopropyl-1H-pyrazol-4-yl)ethynyl)-4-(4-((dimethylamino)methyl)piperidin-1-yl)pyridin-2-yl)-2-(1-(cyclopropylsulfonyl)-1H-pyrazol-4-yl)pyrimidin-4-amine]
9 | 0.1 nM | 0.2 nM | 1.1 nM | 1 nM | 0.2 nM | 0.2 nM | 4.7 nM | 7510 nM | 1.4 nM | 17.2 nM | CN(C)CC1(C)CCN(c2cc(Nc3ccnc(-c4cnn(S(=O)(=O)C5CC5)c4)n3)ncc2C#Cc2cnn(C3CC3)c2)CC1 [Example 299, N-(5-((1-Cyclopropyl-1H-pyrazol-4-yl)ethynyl)-4-(4-((dimethylamino)methyl)-4-methylpiperidin-1-yl)pyridin-2-yl)-2-(1-(cyclopropylsulfonyl)-1H-pyrazol-4-yl)pyrimidin-4-amine]
10 | 1.1 nM | 1.5 nM | 3.3 nM | 10.3 nM | 0.9 nM | 0.9 nM | 26.8 nM | > 10000 nM | 13.5 nM | 288 nM | CN(C)CC1(F)CCN(c2cc(Nc3ccnc(-c4cnn(S(=O)(=O)C5CC5)c4)n3)ncc2C#Cc2cnn(C3CC3)c2)CC1 [Example 300, N-(5-((1-Cyclopropyl-1H-pyrazol-4-yl)ethynyl)-4-(4-((dimethylamino)methyl)-4-fluoropiperidin-1-yl)pyridin-2-yl)-2-(1-(cyclopropylsulfonyl)-1H-pyrazol-4-yl)pyrimidin-4-amine]
11 | 0.6 nM | 1.4 nM | 7.2 nM | 4.9 nM | 0.6 nM | 0.7 nM | 22.9 nM | > 10000 nM | 11.2 nM | 138 nM | CN(C)CC1CCN(c2cc(Nc3ccnc(-c4cnn(S(=O)(=O)C5CC5)c4)n3)ncc2C#Cc2cnn(CC(F)F)c2)CC1 [Example 301, 2-(1-(Cyclopropylsulfonyl)-1H-pyrazol-4-yl)-N-(5-((1-(2,2-difluoroethyl)-1H-pyrazol-4-yl)ethynyl)-4-(4-((dimethylamino)methyl)piperidin-1-yl)pyridin-2-yl)pyrimidin-4-amine]
